Earlier results on 3 compounds are cited in patent publication US9662414B2, “Dressing system” (Edixomed Limited, priority 2013, dated 2017).

For this series the following is noted: healthy 70 kg-adult.

`COC(=O)[C@H]1[C@@H](OC(=O)c2ccccc2)C[C@@H]2CC[C@H]1N2C` [cocaine]: the “generally accepted safe dosage for topical anaesthesia” value (from here on “generally accepted safe dosage”) is on record as 200 mg.
On to `CCN(CC)CC(=O)Nc1c(C)cccc1C` [lidocaine], for which the “generally accepted safe dosage” value was 750 mg.
As to `CCCCNc1ccc(C(=O)OCCN(C)C)cc1` [tetracaine], the “generally accepted safe dosage” value was 50 mg.
